From ChEMBL document CHEMBL5365445, “Discovery of a photosensitizing PI3K inhibitor for tumor therapy: Design, synthesis and in vitro biological evaluation” (Bioorg Med Chem Lett, 2023)
Blank lines part the entries; values can stand above or below the compound they belong to. The source made the active and inactive calls. The calls are words filed in the database; no cut-off is given here.

How the values were obtained:
[1] = Retention time of the compound under 365 nm UV light irradiation by HPLC analysis; format: physicochemical
[2] = target: T1, Phosphatidylinositol 3-kinase (Mus musculus) (UniProt P26450+P42337); assay: Inhibition of PI3K in mouse B16 cells assessed as reduction in phosphorylation of AKT at […] residue at 10 to 15 uM incubated for 24 hrs by Western blot analysis; format: cell-based; details: dose 10-15 µM
[3] = target: T1, Phosphatidylinositol 3-kinase (Mus musculus); assay: Inhibition of PI3K in mouse B16 cells assessed as reduction in phosphorylation of AKT at T308 residue at 10 to 15 uM incubated for 24 hrs by Western blot analysis; format: cell-based; details: dose 10-15 µM
[4] = target: T1, Phosphatidylinositol 3-kinase (Mus musculus); assay: Inhibition of PI3K in mouse B16 cells assessed as reduction in MCL-1 protein expression at 10 to 15 uM incubated for 24 hrs by Western blot analysis; format: cell-based; details: dose 10-15 µM
[5] = target: T1, Phosphatidylinositol 3-kinase (Mus musculus); assay: Inhibition of PI3K in mouse B16 cells assessed as reduction in phosphorylation of AKT at T308 residue at 10 to 15 uM incubated for 24 hrs irradiated with 365 nm uv light for 4 min by Western blot analysis; format: cell-based; details: dose 10-15 µM
[6] = target: T1, Phosphatidylinositol 3-kinase (Mus musculus); assay: Inhibition of PI3K in mouse B16 cells assessed as reduction in phosphorylation of AKT at […] residue at 10 to 15 uM incubated for 24 hrs irradiated with 365 nm uv light for 4 min by Western blot analysis; format: cell-based; details: dose 10-15 µM
[7] = target: Phosphatidylinositol 4,5-bisphosphate 3-kinase catalytic subunit alpha isoform (Homo sapiens, UniProt P42336); assay: Inhibition of PI3Kalpha (unknown origin)
[8] = target: Phosphatidylinositol 4,5-bisphosphate 3-kinase catalytic subunit beta isoform (Homo sapiens, UniProt P42338); assay: Inhibition of PI3Kbeta (unknown origin)
[9] = target: Phosphatidylinositol 4,5-bisphosphate 3-kinase catalytic subunit gamma isoform (Homo sapiens, UniProt P48736); assay: Inhibition of PI3Kgamma (unknown origin)
[10] = target: T2, Phosphatidylinositol 4,5-bisphosphate 3-kinase catalytic subunit delta isoform (Homo sapiens, UniProt O00329); assay: Inhibition of PI3Kdelta (unknown origin)
T2 sequence (O00329 whole entry): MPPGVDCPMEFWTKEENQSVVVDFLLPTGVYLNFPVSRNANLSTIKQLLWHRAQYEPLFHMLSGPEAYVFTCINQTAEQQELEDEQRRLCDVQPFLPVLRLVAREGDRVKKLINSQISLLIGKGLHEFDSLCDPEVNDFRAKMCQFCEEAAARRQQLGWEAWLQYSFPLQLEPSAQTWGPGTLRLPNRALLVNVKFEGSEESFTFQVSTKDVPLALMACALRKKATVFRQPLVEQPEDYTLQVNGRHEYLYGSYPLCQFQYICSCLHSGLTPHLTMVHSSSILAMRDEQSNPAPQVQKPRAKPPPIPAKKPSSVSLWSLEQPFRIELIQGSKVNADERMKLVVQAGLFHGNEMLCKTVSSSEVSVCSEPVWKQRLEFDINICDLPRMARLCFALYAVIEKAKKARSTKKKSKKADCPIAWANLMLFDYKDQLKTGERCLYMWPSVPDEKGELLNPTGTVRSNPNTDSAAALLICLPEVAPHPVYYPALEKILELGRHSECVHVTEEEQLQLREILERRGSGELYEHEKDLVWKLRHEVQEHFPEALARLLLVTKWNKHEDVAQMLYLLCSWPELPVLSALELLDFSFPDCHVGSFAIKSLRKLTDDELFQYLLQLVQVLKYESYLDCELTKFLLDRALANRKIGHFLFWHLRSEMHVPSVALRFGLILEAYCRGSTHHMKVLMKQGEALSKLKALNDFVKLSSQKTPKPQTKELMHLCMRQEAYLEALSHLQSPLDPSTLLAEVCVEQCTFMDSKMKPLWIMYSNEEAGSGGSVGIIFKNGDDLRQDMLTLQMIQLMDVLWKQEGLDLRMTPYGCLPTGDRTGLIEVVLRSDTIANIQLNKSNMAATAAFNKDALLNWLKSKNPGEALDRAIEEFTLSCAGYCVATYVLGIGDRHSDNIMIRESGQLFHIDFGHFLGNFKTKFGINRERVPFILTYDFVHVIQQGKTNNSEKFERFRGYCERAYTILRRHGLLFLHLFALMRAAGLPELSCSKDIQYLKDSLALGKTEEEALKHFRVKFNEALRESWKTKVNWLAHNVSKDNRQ

[11] = tested on: B16; assay: Antiproliferative activity against mouse B16 cells assessed as reduction in cell viability incubated for 48 hrs irradiated with 365 nm uv light for 4 min by CCK-8 assay; format: functional, cell-based; details: B16, light or radiation study
[12] = target: T1, Phosphatidylinositol 3-kinase (Mus musculus); assay: Inhibition of PI3K in mouse B16 cells assessed as reduction in phosphorylation of AKT at […] residue incubated for 24 hrs by Western blot analysis; format: cell-based; details: dose 10-15 µM
[13] = target: T1, Phosphatidylinositol 3-kinase (Mus musculus); assay: Inhibition of PI3K in mouse B16 cells assessed as reduction in phosphorylation of AKT at T308 residue incubated for 24 hrs by Western blot analysis; format: cell-based; details: dose 10-15 µM
[14] = target: T1, Phosphatidylinositol 3-kinase (Mus musculus); assay: Inhibition of PI3K in mouse B16 cells assessed as reduction in MCL-1 protein expression incubated for 24 hrs by Western blot analysis; format: cell-based; details: dose 10-15 µM
[15] = target: T1, Phosphatidylinositol 3-kinase (Mus musculus); assay: Inhibition of PI3K in mouse B16 cells assessed as reduction in MCL-1 protein expression at 10 to 15 uM incubated for 24 hrs irradiated with 365 nm uv light for 4 min by Western blot analysis; format: cell-based; details: dose 10-15 µM
[16] = tested on: B16; assay: Induction of apoptosis in mouse B16 cells assessed as viable at 10 uM incubated for 48 hrs by annexin-V/propidium iodide staining based flow cytometry analysis (reference value: 97.4 %); format: functional
[17] = tested on: B16; assay: Induction of apoptosis in mouse B16 cells assessed as early apoptotic cells at 10 uM incubated for 48 hrs by annexin-V/propidium iodide staining based flow cytometry analysis (reference value: 1.39 %); format: functional
[18] = tested on: B16; assay: Induction of apoptosis is in mouse B16 cells assessed as late apoptotic cells at 10 uM incubated for 48 hrs by annexin-V/propidium iodide staining based flow cytometry analysis (reference value: 1.15 %); format: functional
[19] = tested on: B16; assay: Induction of apoptosis is in mouse B16 cells assessed as necrotic cells at 10 uM incubated for 48 hrs by annexin-V/propidium iodide staining based flow cytometry analysis (reference value: 0.01 %); format: functional
[20] = tested on: B16; assay: Induction of apoptosis in mouse B16 cells assessed as viable at 15 uM incubated for 48 hrs by annexin-V/propidium iodide staining based flow cytometry analysis (reference value: 97.4 %); format: functional
[21] = tested on: B16; assay: Induction of apoptosis in mouse B16 cells assessed as early apoptotic cells at 15 uM incubated for 48 hrs by annexin-V/propidium iodide staining based flow cytometry analysis (reference value: 1.39 %); format: functional
[22] = tested on: B16; assay: Induction of apoptosis is in mouse B16 cells assessed as late apoptotic cells at 15 uM incubated for 48 hrs by annexin-V/propidium iodide staining based flow cytometry analysis (reference value: 1.15 %); format: functional
[23] = tested on: B16; assay: Induction of apoptosis is in mouse B16 cells assessed as necrotic cells at 15 uM incubated for 48 hrs by annexin-V/propidium iodide staining based flow cytometry analysis (reference value: 0.01 %); format: functional
[24] = tested on: B16; assay: Induction of apoptosis in mouse B16 cells assessed as viable cells at 10 uM incubated for 48 hrs irradiated with 365 nm for 4 mins by annexin-V/propidium iodide staining based flow cytometry analysis (reference value: 96.7 %); format: functional; details: B16, light or radiation study, read-out: Activity
[25] = tested on: B16; assay: Induction of apoptosis in mouse B16 cells assessed as early apoptotic cells at 10 uM incubated for 48 hrs irradiated with 365 nm for 4 mins by annexin-V/propidium iodide staining based flow cytometry analysis (reference value: 2.38 %); format: functional
[26] = tested on: B16; assay: Induction of apoptosis in mouse B16 cells assessed as late apoptotic cells at 10 uM incubated for 48 hrs irradiated with 365 nm for 4 mins by annexin-V/propidium iodide staining based flow cytometry analysis (reference value: 0.84 %); format: functional
[27] = tested on: B16; assay: Induction of apoptosis in mouse B16 cells assessed as necrotic cells at 10 uM incubated for 48 hrs irradiated with 365 nm for 4 mins by annexin-V/propidium iodide staining based flow cytometry analysis (reference value: 0.07 %); format: functional
[28] = tested on: B16; assay: Induction of apoptosis in mouse B16 cells assessed as viable cells at 15 uM incubated for 48 hrs irradiated with 365 nm for 4 mins by annexin-V/propidium iodide staining based flow cytometry analysis (reference value: 96.7 %); format: functional; details: B16, light or radiation study, read-out: Activity
[29] = tested on: B16; assay: Induction of apoptosis in mouse B16 cells assessed as early apoptotic cells at 15 uM incubated for 48 hrs irradiated with 365 nm for 4 mins by annexin-V/propidium iodide staining based flow cytometry analysis (reference value: 2.38 %); format: functional
[30] = tested on: B16; assay: Induction of apoptosis in mouse B16 cells assessed as late apoptotic cells at 15 uM incubated for 48 hrs irradiated with 365 nm for 4 mins by annexin-V/propidium iodide staining based flow cytometry analysis (reference value: 0.84 %); format: functional
[31] = tested on: B16; assay: Induction of apoptosis in mouse B16 cells assessed as necrotic cells at 15 uM incubated for 48 hrs irradiated with 365 nm for 4 mins by annexin-V/propidium iodide staining based flow cytometry analysis (reference value: 0.07 %); format: functional
[32] = tested on: B16; assay: Induction of cell cycle arrest in mouse B16 cells assessed as cells accumulation at G2/M phase at 10 to 15 uM incubated for 24 hrs by flow cytometry analysis; format: functional, cell-based; details: dose 10-15 µM
[33] = tested on: B16; assay: Induction of cell cycle arrest in mouse B16 cells assessed as cells accumulation at G2/M phase at 10 to 15 uM incubated for 24 hrs irradiated with 365 nm for 4 mins by flow cytometry analysis; format: functional, cell-based; details: dose 10-15 µM
[34] = tested on: B16; assay: Induction of apoptosis in mouse B16 cells assessed as increase in apoptotic cells at 10 uM incubated for 48 hrs by annexin-V/propidium iodide staining based flow cytometry analysis; format: functional
[35] = Photorelease activity in PBS assessed as N-(2-chloro-5-(1H-pyrazolo[3,4-b]pyridin-5-yl)pyridin-3-yl) benzene sulfonamide release irradiated with 254 nm incubated for 12 mins by HPLC analysis

T1 sequence (P26450 whole entry, looked up): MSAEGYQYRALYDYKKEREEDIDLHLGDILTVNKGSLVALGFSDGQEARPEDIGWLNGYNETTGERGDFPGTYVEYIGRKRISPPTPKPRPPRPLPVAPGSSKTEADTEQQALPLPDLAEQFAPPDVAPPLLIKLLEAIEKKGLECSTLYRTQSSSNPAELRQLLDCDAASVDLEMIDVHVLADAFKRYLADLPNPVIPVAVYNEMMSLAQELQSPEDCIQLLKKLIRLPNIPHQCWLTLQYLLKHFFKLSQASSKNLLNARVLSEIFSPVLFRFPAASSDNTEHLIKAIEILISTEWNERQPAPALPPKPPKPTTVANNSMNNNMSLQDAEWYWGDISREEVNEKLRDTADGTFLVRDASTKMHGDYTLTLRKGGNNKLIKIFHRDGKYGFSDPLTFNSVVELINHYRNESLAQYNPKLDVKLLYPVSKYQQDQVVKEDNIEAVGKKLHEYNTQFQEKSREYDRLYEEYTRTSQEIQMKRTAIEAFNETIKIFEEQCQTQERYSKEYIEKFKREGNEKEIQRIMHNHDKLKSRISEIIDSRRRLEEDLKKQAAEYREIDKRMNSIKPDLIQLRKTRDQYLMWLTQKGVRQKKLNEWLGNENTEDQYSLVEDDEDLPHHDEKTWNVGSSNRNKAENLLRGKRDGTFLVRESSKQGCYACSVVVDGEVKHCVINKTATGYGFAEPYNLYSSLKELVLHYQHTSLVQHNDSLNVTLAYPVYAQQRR
T1 sequence (P42337 whole entry, looked up): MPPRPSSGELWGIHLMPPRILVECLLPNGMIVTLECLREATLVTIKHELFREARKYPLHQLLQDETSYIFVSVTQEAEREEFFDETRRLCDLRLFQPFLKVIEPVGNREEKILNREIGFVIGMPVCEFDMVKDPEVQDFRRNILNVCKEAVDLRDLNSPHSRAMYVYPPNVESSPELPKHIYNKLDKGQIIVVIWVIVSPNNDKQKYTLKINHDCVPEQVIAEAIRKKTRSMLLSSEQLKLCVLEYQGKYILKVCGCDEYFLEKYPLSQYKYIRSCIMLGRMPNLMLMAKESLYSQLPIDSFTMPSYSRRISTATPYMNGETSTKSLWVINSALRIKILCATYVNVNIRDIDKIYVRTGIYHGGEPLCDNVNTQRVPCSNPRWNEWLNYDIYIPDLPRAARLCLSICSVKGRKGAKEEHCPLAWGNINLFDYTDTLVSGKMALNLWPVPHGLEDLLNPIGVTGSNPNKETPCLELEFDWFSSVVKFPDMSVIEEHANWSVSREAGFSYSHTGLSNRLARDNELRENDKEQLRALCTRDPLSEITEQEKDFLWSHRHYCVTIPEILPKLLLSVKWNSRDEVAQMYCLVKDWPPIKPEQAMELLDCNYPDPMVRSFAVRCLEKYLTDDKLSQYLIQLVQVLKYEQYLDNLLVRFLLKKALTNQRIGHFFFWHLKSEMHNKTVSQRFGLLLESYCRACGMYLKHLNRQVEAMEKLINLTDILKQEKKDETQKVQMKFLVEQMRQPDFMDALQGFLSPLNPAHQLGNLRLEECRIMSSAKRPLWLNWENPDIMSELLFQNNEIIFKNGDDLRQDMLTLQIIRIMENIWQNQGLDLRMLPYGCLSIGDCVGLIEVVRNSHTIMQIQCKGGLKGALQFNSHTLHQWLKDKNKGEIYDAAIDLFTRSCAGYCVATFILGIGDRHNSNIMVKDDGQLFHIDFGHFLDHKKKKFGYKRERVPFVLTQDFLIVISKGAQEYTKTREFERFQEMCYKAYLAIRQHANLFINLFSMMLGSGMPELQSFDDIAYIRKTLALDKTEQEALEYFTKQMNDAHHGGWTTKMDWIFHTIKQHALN
Chain of Phosphatidylinositol 4,5-bisphosphate 3-kinase catalytic subunit gamma isoform (P48736 whole entry, canonical isoform): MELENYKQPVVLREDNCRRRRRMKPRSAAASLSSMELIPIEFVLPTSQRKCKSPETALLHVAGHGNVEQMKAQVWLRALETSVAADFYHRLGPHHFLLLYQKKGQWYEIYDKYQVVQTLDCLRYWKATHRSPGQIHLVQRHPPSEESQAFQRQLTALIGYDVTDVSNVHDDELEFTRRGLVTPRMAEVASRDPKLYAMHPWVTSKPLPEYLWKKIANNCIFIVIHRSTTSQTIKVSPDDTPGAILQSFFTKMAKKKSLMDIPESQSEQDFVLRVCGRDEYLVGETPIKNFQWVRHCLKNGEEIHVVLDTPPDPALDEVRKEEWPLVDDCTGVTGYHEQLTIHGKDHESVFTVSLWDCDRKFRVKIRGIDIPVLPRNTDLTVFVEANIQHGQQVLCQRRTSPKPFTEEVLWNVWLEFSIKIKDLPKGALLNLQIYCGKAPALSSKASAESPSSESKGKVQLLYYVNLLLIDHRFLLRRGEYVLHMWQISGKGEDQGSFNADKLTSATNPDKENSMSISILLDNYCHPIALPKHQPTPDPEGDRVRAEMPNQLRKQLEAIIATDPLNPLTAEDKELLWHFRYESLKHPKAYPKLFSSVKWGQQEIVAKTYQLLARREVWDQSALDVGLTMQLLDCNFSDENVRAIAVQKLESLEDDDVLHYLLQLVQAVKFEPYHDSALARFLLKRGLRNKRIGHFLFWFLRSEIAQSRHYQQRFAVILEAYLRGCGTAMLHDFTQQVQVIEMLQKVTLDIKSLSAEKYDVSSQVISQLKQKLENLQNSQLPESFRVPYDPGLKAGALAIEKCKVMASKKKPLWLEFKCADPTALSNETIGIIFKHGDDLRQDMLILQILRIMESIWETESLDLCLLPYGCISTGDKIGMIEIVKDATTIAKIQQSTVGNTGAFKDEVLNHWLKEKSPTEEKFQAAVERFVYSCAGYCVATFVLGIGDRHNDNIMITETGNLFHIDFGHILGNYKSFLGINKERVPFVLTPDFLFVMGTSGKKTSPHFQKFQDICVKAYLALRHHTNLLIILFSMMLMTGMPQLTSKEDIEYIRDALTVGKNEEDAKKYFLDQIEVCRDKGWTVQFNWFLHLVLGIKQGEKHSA
Chain of Phosphatidylinositol 4,5-bisphosphate 3-kinase catalytic subunit beta isoform (P42338 whole entry, canonical isoform): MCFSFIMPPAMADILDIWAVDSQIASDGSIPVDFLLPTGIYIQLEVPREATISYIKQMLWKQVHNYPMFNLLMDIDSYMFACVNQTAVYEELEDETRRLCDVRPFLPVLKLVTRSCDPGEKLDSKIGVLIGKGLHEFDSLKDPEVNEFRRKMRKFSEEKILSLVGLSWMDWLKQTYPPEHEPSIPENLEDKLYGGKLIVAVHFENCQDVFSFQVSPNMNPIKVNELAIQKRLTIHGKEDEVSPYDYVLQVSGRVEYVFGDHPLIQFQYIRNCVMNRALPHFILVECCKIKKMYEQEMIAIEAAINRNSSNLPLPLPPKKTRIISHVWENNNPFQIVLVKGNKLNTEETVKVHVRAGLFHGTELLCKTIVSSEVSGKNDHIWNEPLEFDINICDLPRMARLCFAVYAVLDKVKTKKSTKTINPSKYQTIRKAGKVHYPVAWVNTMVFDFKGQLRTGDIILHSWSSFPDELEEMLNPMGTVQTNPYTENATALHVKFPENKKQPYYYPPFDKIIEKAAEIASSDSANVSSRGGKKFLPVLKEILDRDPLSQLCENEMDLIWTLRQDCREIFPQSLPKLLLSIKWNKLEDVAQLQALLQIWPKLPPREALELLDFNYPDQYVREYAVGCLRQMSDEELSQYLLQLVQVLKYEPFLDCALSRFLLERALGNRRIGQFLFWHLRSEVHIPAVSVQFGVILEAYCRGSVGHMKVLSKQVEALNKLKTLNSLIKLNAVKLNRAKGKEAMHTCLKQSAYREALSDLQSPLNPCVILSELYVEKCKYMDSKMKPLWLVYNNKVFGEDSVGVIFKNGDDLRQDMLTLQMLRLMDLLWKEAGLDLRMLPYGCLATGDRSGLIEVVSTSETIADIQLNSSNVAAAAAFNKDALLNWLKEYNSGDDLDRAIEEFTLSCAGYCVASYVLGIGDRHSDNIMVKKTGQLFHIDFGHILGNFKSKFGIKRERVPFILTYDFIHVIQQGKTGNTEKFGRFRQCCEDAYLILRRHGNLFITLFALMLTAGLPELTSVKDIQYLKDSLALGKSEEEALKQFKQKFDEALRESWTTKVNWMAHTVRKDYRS
Chain of Phosphatidylinositol 4,5-bisphosphate 3-kinase catalytic subunit alpha isoform (P42336 whole entry, canonical isoform): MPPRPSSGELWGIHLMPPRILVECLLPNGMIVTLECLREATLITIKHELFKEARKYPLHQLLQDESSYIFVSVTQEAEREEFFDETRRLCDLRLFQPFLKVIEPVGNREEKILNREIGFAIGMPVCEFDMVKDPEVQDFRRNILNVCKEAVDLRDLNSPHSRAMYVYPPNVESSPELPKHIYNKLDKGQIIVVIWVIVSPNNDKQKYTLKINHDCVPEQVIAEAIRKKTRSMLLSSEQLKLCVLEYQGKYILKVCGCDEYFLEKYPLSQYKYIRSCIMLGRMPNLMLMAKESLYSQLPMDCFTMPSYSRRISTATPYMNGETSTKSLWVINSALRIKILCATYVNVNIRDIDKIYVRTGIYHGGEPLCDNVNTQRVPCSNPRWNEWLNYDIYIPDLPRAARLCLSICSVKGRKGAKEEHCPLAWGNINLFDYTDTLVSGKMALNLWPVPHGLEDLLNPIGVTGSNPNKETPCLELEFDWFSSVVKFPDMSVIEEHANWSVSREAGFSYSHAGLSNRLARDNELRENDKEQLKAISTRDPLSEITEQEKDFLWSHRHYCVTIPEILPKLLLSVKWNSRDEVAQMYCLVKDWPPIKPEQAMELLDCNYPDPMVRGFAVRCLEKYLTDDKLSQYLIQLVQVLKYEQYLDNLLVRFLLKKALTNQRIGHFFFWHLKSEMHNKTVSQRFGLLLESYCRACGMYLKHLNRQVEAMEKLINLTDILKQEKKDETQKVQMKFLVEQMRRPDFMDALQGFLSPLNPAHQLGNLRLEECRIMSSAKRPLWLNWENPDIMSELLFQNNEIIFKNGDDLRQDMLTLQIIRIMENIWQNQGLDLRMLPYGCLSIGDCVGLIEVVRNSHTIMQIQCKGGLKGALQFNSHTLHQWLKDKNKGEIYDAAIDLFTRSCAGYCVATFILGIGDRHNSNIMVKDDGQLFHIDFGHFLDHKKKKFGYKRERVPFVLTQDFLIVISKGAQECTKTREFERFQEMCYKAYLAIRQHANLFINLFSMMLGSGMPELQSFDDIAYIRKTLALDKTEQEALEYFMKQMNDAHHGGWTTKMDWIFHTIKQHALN

Retention_time [1]: 7.9 min
inhibition [2]: Active
inhibition [3]: Active
inhibition [4]: Active
Compound: O=S(=O)(Nc1cc(-c2cnc3[nH]ncc3c2)cnc1Cl)c1ccccc1

inhibition [5]: Active
inhibition [6]: Active
IC50 [7]: 43 nM
IC50 [8]: 83 nM
IC50 [9]: 84 nM
IC50 [10]: 14 nM
IC50 [11]: 8800 nM
inhibition [12]: Dose-Dependent Effect
inhibition [13]: Dose-Dependent Effect
inhibition [14]: Dose-Dependent Effect
inhibition [15]: Active
Retention_time [1]: 10.4 min
Compound: COc1cc(COC(=O)n2ncc3cc(-c4cnc(Cl)c(NS(=O)(=O)c5ccccc5)c4)cnc32)c([N+](=O)[O-])cc1OC
Activity [16]: 95.6%
Activity [17]: 3.16%
Activity [18]: 1.25%
Activity [19]: 0%
Activity [20]: 88.1%
Activity [21]: 7.13%
Activity [22]: 3.42%
Activity [23]: 1.3%
viability at 10 µM [24]: 88.5%
Activity [25]: 8.04%
Activity [26]: 3.49%
Activity [27]: 0%
viability at 15 µM [28]: 69.6%
Activity [29]: 14.4%
Activity [30]: 14.7%
Activity [31]: 1.27%
Activity [32]: Active
Activity [33]: Active
Activity [34]: <10%
Drug metabolism [35]: > 98%
